# Reference: patent publication US20240335456A1, “CO-CRYSTAL COMPOSITION AND ITS PHARMACEUTICAL USE” (SYN-NAT PRODUCTS ENTERPRISE LLC, priority 2015, published 2024)
# Values joined by “and” are separate entries in the source; they are usually repeats but may differ in a detail not shown here. Equal entries are not always repeated.
# What was measured:
# [1] = tested on: nonbacterial prostatitis; test: Mouse model for prostatitis, prostate tissue pathology; format: in vivo
# Excerpt: Mouse model for prostatitis was utilized to study the effects of DCP.
# [2] = tested on: benign prostatic hyperplasia (BPH); test: Study of DCP in male cancer patients also suffering from BPH; format: in vivo, human
# [3] = tested on: benign prostatic hyperplasia (BPH); test: Mouse model of BPH (white cell number, lecithin density, prostate tissue); format: in vivo
# Excerpt: In the BPH model group (FIG. 7), glands proliferation and a small amount of lymphocytes and plasma cells were shown.
# [4] = tested on: Human MH7A synovial cells; test: MH7A synovial cell proliferation (cell numbers 48 hours after treatment); format: cell-based
# Method: Human MH7A synovial cells were cultured in vitro and proliferation of the cells was measured by quantifying cells numbers 48 hours after treatment. The cells were treated with DCP at concentrations of 1.563 μg/ml; 3.125 μg/ml; 6.25 μg/ml; 12.5 μg/ml; 25 μg/ml; 50 μg/ml; or 100 μg/ml.
# [5] = Phase I dose-escalation, Chinese cancer patients; cited from earlier work
# [6] = tested on: Human fibroblast-like synoviocytes rheumatoid arthritis (HFLS-RA) cells; test: HFLS-RA cell proliferation (cell numbers 48 hours after treatment); format: cell-based
# Method: Human fibroblast-like synoviocytes rheumatoid arthritis (HFLS-RA) cells were cultured in vitro and proliferation of the cells was measured by quantifying cells numbers 48 hours after treatment. The cells were treated with DCP at concentrations of 1.563 μg/ml; 3.125 μg/ml; 6.25 μg/ml; 12.5 μg/ml; 25 μg/ml; 50 μg/ml; or 100 μg/ml.
# [7] = tested on: rheumatoid arthritis, osteoarthritis, arthrolithiasis (gout); test: Phase II and Phase III clinical trials in SCLC patients also suffering from rheumatoid arthritis, osteoarthritis, gout and other diseases; format: in vivo, human; settings: DCP 1 to about 10 mg/kg body weight
# Method: DCP alleviated symptoms for clinical trial patients suffering from multiple diseases. In China, DCP (1 to about 10 mg/kg body weight) in combination with cisplatin and Paclitaxel were used in Phase II and Phase III clinical trials for treatment of patients having small cell lung cancer (SCLC). The cancer patients were simultaneously suffering from a number of proliferative diseases, degenerative diseases, immunological diseases, and other diseases as indicated above. For example, some of the patients were suffering from rheumatoid arthritis, osteoarthritis, arthrolithiasis (gout) and/or other diseases. […] Such diseases include at least rheumatoid arthritis, osteoarthritis, and arthrolithiasis (gout). […] When DCP was administered with an additional therapeutic agent or adjuvant therapy agent such as folic acid, coenzyme Q10, curcumin, glutathione (GSH), aloe vera, oryzanol, 5-fluorouracil, bortezomib, the effects to reduce disease symptoms were further enhanced.
# [8] = majority of BPH patients, after two weeks of use
# [9] = 48 hours after treatment, 1.563-100 μg/ml
compound,measurement,setting,value
Dicycloplatin [DCP],"Effective amount for human, based on the effective amount in mice",[1]; extrapolated from mouse prostatitis model,1 to 10 mg/Kg body weight
same,Outcome of mice with nonbacterial prostatitis,[1]; treatment for 1-2 weeks,returned to normal
same,Granulomatous lesions in prostate tissue,"[1]; treatment for one week, FIG. 5",significantly reduced in some tissues or eliminated in others
same,Inflammatory cells in interstitial infiltration,"[1]; treatment for one week, FIG. 5",significantly reduced
same,Enlargement of prostate,[2]; [8],obviously inhibited
same,Maximum of urinary volume,[2]; [8],more than 12 mL/s
same,PSA,[2]; [8],decreased
same,Symptoms of BPH,[2]; male patients with cancers and BPH,significantly alleviated
same,Lecithin corpuscle (density),[3]; DCP injection,30 ± 0.53
same,White cell (number/μL),[3]; DCP injection,3250 ± 65 number/μL
same,Lecithin corpuscle (density),[3]; DCP oral,27 ± 0.50
same,White cell (number/μL),[3]; DCP oral,3500 ± 71 number/μL
same,Enlargement of prostate,[3]; after treatment for a therapeutic period,significant inhibited
same,"Prostate tissue findings (inflammatory cells, glandular proliferation)","[3]; intravenous administration, FIG. 9","inflammatory cells were significantly reduced, and glandular proliferation was inhibited"
same,"Prostate tissue findings (inflammatory cells, glandular proliferation)","[3]; oral administration, FIG. 10",inflammatory cells were significantly reduced and glandular proliferation was inhibited
same,"IC50, inhibition of MH7A cell proliferation",[4]; [9],8.926 mg/L and 8.92 mg/L
same,MH7A cell proliferation inhibited,[4]; FIG. 2,99%
same,Tolerated doses,[5],100 to 550 mg/m^2
same,"IC50, inhibition of HFLS-RA cell proliferation",[6]; [9],3.914 mg/L and 3.125 mg/L
same,HFLS-RA cell proliferation inhibited,[6]; FIG. 1,99%
same,Side effects,[7],less patients receiving DCP alone were suffering from side effects and the side effects were of less severity
same,"Symptoms of proliferative, degenerative, immunological and other diseases",[7],significantly alleviated the symptoms
"CC(C)(C)NC(=O)[C@H]1CC[C@H]2[C@@H]3CC[C@H]4NC(=O)C=C[C@]4(C)[C@H]3CC[C@]12C [PROSCAR, Finasteride, reference compound]","Prostate tissue findings (inflammation cells, glandular proliferation)","[3]; PROSCAR drug group, FIG. 8","glandular proliferation was not clear, but inflammation cells were reduced"
